Experimental data reported in ChEMBL document CHEMBL1201862, “PubChem BioAssay data set” (2004).
The source made the active and inactive calls.

Legend:
[1] = molecular target: T1, Endoribonuclease toxin MazF (Escherichia coli K-12, UniProt P0AE70); test: substrate-only fluorescence increase artefacts – biochemical, single-stranded RNase substrate, counter-screen for MazEF activator project, dose response (AID 588502); type: functional
T1 sequence (P0AE70 whole entry): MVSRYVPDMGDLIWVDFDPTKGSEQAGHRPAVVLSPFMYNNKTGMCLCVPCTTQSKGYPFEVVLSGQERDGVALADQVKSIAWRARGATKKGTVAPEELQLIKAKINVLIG

[2] = molecular target: T1, Endoribonuclease toxin MazF; test: activation of MazEF endoribonuclease cleavage – biochemical, fluorescence, single-stranded RNA substrate, uHTS hits, dose response (AID 588481); type: functional
[3] = molecular target: T2, Carboxy-terminal domain RNA polymerase II polypeptide A small phosphatase 1 (Homo sapiens, UniProt Q9GZU7); test: CTDSP1 inhibitors, concentration-response, biochemical, absorbance readout, ultra-high-throughput screen actives (AID 540297); type: functional
T2 sequence (Q9GZU7 whole entry): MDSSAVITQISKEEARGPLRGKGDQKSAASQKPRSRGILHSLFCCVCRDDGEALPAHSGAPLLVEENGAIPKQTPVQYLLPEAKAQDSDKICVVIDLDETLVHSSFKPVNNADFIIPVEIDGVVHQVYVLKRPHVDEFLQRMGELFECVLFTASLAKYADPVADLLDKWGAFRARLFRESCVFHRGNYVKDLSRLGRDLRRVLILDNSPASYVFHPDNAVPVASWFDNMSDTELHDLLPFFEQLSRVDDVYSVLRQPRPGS

[4] = molecular target: T3, Small ubiquitin-related modifier 1 (Homo sapiens, UniProt P63165); test: SUMO1 protein-protein binding blockers, potency – biochemical, FRET, dose response (AID 624383); type: functional; conditions: read-out: IC50_Mean
T3 sequence (P63165 whole entry): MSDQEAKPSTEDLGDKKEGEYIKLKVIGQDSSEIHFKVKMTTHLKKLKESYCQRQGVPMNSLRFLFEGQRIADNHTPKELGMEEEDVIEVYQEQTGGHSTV

[5] = molecular target: T3, Small ubiquitin-related modifier 1; test: SUMO1 protein interaction blockers, potency – biochemical, fluorescence polarization, uHTS hits, dose response (AID 624382); type: functional; conditions: read-out: IC50_Mean
Steroidogenic factor 1 = Steroidogenic factor 1 (Homo sapiens, UniProt Q13285); test: Counterscreen for inverse agonists of the liver receptor homolog-1 (LRH-1; NR5A2): Luminescence-based cell-based high throughput dose response assay to identify inverse agonists of the Steroidogenic Factor 1 Nuclear Receptor (SF1; NR5A1).; type: functional
Chain of Steroidogenic factor 1 (Q13285 whole entry): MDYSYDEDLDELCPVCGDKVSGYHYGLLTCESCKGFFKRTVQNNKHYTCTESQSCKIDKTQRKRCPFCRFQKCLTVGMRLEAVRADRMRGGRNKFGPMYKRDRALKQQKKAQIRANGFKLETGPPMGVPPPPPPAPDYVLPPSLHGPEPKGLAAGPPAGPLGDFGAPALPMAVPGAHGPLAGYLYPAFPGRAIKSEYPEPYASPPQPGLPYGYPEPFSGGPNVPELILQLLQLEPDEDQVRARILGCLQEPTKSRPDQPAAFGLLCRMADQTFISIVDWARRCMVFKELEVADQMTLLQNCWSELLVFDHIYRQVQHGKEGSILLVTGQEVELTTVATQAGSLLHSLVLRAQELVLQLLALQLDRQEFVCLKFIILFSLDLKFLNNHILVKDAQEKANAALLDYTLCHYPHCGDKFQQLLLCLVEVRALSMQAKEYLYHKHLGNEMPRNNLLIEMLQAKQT

[6] = molecular target: Nuclear receptor subfamily 5 group A member 2 (Homo sapiens, UniProt O00482); type: functional, cell-based;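 also: HEK293T cells transfected with LRH-1 and a StAR promoter luciferase reporter; potency for inhibitors that lower LRH-1 driven reporter light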
Chain of Nuclear receptor subfamily 5 group A member 2 (O00482 whole entry): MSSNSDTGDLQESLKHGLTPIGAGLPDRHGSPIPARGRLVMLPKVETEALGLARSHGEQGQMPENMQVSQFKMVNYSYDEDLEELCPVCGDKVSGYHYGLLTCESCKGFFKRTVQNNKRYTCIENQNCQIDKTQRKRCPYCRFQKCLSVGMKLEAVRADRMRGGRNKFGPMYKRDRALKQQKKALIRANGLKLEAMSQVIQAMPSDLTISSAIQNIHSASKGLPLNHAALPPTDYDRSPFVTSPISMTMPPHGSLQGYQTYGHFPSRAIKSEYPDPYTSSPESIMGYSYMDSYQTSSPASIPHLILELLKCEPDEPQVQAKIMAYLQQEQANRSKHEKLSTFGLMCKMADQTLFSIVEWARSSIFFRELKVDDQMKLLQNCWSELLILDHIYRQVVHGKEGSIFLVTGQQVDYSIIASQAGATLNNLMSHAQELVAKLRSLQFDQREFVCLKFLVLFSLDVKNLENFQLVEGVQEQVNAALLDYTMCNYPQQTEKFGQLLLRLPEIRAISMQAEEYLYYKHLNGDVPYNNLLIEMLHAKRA

[7] = nonselective StAR promoter luciferase inhibitors – cell-based, luminescence, luciferase reporter, counter-screen for LRH-1 inverse agonist project, dose response (AID 651969); type: functional
[8] = Counterscreen for inhibitors of Trypanosoma brucei methionyl tRNA synthetase (MetRS): Luminescence-based cell-based high throughput dose response assay to identify compounds that are cytotoxic to Jurkat human T lymphocyte cells.; type: functional
[9] = molecular target: T4, Sentrin-specific protease 6 (Homo sapiens, UniProt Q9GZR1); type: functional;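 also: Luminescence-based dose-response confirmatory assay of SENP6 inhibition, following up an ultra-high-throughput screen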
T4 sequence (Q9GZR1 whole entry): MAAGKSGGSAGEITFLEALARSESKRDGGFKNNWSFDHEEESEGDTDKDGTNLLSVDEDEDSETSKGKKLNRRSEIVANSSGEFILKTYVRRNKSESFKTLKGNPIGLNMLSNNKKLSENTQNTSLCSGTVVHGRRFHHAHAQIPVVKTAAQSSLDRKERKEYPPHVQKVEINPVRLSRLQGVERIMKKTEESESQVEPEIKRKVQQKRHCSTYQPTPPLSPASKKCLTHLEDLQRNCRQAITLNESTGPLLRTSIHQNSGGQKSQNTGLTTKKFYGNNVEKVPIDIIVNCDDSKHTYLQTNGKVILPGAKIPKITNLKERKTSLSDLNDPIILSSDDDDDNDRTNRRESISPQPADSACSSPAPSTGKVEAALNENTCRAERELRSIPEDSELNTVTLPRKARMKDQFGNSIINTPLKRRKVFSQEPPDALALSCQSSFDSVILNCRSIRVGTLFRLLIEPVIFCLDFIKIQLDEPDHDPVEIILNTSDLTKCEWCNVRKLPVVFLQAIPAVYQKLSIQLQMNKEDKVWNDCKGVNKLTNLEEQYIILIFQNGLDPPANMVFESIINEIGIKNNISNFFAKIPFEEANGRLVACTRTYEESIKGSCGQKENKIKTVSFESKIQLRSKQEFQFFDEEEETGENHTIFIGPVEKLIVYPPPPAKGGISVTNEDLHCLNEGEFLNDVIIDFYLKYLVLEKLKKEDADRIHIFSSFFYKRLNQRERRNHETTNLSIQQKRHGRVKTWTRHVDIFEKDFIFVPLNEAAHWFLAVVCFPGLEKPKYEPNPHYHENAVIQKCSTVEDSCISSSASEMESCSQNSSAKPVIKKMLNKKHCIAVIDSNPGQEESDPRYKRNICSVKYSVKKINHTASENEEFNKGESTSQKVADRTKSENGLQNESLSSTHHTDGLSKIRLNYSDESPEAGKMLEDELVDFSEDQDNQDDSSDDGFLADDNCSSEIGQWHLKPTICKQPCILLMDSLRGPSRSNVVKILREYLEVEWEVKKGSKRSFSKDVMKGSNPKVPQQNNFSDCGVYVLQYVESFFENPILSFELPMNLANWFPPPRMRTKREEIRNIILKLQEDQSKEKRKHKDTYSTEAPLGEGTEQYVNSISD

[10] = molecular target: T5, Mitochondrial peptide methionine sulfoxide reductase (Bos taurus, UniProt P54149); test: Absorbance-based biochemical high throughput dose response assay for activators of Methionine sulfoxide reductase A (MsrA).; type: functional
T5 sequence (P54149 whole entry): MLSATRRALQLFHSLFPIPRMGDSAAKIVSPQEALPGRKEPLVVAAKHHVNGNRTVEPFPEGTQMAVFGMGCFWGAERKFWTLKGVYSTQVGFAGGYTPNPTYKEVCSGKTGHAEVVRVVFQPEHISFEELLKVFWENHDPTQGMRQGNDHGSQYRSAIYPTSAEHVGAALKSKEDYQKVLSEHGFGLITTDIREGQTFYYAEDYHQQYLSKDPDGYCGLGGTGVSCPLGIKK

Caspase-6 = molecular target: T6, Caspase-6 (Homo sapiens, UniProt P55212); test: inhibition of CASP6 peptide cleavage – biochemical, VEID-R110 fluorescence, cherry-pick, dose response (AID 720632)
T6 sequence (P55212 whole entry): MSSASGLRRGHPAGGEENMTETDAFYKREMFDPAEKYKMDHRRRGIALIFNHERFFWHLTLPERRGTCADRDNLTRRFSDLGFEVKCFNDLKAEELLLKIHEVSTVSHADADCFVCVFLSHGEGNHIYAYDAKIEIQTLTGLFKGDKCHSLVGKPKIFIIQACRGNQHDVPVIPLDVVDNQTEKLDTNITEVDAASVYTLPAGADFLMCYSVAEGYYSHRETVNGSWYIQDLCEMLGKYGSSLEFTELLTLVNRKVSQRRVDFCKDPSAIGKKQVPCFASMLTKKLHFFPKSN

[11] = molecular target: T7, Sentrin-specific protease 7 (Homo sapiens, UniProt Q9BQF6); type: functional;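 also: Luminescence-based dose-response confirmation of ultra-high-throughput screening hits, measuring inhibition of SENP7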
T7 sequence (Q9BQF6 whole entry): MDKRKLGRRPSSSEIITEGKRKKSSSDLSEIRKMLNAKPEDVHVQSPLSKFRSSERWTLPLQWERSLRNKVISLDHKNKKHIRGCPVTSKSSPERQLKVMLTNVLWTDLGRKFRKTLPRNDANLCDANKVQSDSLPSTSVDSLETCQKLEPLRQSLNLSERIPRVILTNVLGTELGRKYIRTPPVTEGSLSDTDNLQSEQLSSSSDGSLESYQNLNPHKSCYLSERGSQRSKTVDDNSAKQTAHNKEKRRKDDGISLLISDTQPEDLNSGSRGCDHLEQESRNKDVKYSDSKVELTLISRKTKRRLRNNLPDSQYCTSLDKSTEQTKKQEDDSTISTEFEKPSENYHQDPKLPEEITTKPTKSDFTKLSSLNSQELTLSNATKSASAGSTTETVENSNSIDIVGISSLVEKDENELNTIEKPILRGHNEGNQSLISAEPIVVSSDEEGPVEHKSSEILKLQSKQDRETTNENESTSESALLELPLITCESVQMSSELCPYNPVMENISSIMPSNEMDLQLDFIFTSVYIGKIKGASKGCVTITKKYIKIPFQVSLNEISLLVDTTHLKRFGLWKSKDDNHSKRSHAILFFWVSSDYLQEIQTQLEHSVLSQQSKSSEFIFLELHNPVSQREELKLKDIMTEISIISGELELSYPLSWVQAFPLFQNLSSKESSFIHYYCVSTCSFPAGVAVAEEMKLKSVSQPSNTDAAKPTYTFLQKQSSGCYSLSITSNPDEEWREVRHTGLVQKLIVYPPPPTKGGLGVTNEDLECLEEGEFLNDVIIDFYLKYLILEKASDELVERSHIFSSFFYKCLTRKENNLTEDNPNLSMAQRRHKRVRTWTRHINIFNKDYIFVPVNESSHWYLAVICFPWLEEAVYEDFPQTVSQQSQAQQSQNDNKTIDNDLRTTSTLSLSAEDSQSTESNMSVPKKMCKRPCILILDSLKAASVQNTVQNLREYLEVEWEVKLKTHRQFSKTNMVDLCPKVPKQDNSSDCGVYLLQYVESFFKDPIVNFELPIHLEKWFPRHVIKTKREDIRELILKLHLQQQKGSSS

[12] = molecular target: T8, Tyrosyl-DNA phosphodiesterase 2 (Homo sapiens, UniProt O95551); test: potency against TDP2 phosphodiesterase activity – biochemical, epi absorbance, IC50, dose response (AID 743297)
T8 sequence (O95551 whole entry): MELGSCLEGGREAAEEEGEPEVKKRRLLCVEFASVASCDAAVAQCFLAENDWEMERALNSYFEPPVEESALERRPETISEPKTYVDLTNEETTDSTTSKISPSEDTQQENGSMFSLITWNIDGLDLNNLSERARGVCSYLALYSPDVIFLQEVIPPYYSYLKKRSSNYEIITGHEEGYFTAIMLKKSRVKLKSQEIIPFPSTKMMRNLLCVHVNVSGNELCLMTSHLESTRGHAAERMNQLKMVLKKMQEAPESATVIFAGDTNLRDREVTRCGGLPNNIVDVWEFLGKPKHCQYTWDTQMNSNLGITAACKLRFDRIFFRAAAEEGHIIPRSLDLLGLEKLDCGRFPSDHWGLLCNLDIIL

Caspase-3 = molecular target: T9, Caspase-3 (Homo sapiens, UniProt P42574); type: functional;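 also: Dose-response selectivity test against caspase-3 for candidate inhibitors of sentrin-specific proteases (SENPs)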
T9 sequence (P42574 whole entry): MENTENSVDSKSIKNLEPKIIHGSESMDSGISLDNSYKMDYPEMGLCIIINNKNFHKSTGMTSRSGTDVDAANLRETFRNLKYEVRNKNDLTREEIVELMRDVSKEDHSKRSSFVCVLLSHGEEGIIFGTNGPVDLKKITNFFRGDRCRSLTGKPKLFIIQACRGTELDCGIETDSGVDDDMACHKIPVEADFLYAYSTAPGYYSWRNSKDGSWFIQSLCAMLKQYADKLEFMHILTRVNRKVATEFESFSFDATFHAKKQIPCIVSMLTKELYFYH

[13] = molecular target: T10, Sentrin-specific protease 8 (Homo sapiens, UniProt Q96LD8); type: functional;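 also: luminescence read-out of SENP8 inhibition, dose-response confirmation following an ultra-high-throughput screen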
T10 sequence (Q96LD8 whole entry): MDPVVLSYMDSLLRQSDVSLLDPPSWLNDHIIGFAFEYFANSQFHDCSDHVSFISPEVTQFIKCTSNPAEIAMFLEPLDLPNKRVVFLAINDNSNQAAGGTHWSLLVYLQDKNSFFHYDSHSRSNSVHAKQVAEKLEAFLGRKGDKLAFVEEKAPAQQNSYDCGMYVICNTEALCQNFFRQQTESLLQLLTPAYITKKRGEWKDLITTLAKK

[14] = viability loss of HMLE_sh_eGFP cells – cell-based, luminescence, counter-screen for HMLE_sh_ECad selective toxicity project, dose response (AID 463074); type: functional, Homo sapiens;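 also: HMLE human mammary epithelial cells expressing control shRNA against eGFP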
BJ [15] = test: BJ-TERT-LT-ST fibroblast viability loss – cell-based, RAS-independent, luminescence, dose response (AID 1935); type: functional; conditions: Homo sapiens;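 also: BJ fibroblasts immortalized with TERT plus LT and ST oncogenes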
[16] = DRD fibroblast viability loss – cell-based, non-viral oncogenic, luminescence, dose response (AID 1934); type: functional; conditions: Homo sapiens
BJ [17] = test: cells; type: functional, cell-based; conditions: Homo sapiens
BJ [18] = test: BJ-TERT fibroblast viability loss – cell-based, RAS-independent, luminescence, dose response (AID 1933); type: functional; conditions: Homo sapiens
[19] = Luminescence Cell-Based Dose Retest to Confirm Inhibitors of Cancer Stem Cells. [Related pubchem assays (depositor defined):AID2717, AID2721]; type: functional; conditions: Homo sapiens

O=[N+]([O-])c1ccc2[nH]c(O)c(N=Nc3ccc(F)cc3)c2c1
EC50 [1]: 20.3 µM (inactive)
EC50 [2]: > 99 µM (inactive)

COc1ccc(Nc2nnc(-c3ccncc3)s2)cc1Cl
IC50 [3]: 4.85 µM (active)
IC50 [4]: 6.3 µM (active)
IC50 [5]: > 66.6 µM (inactive)

COCC(=O)NC1CCN(CC(=O)Nc2ccc(OC)cc2[N+](=O)[O-])CC1
IC50 (Steroidogenic factor 1): 1.37 µM (active)
IC50 [6]: 3.9 µM (active)
IC50 [7]: 35.9 µM (inactive)

COc1ccc(S(=O)(=O)Nc2ccc3c(c2)n(C)c(=O)n3C)cc1F
IC50 (Steroidogenic factor 1): 9.64 µM (active)
IC50 [6]: 8.04 µM (active)
IC50 [7]: 34.5 µM (inactive)

O=C(CSc1nc2ccc[nH]c-2n1)Nc1ccc2c(c1)OCO2
IC50 [8]: 83.3 µM (inactive)

CC1CCCC(NC(=O)COC(=O)c2ccc([N+](=O)[O-])s2)C1C (stereo not given)
IC50 [9]: 6.5 µM (active)
EC50 [10]: 22.9 µM (inactive)
AC50 (Caspase-6): 8.44 µM (active)
IC50 [11]: 8.12 µM (active)
IC50 [12]: 85.5 µM (inactive)
IC50 (Caspase-3): 13.7 µM (active)
IC50 [13]: 5.63 µM (active)

Cc1cccc(NC(=S)N/N=C/c2cccc(O)c2)c1C
AC50 [14]: 33.7 µM (active)
EC50 (BJ [15]): 2.91 µM (active)
EC50 [16]: 2.75 µM (active)
EC50 (BJ [17]): 26 µM (inconclusive)
EC50 (BJ [18]): 11.3 µM (active)
AC50 [19]: 1.15 µM (active)
